Data published in ChEMBL document CHEMBL1933032, “Synthesis and evaluation of 4-alkoxy-[1'-cyclobutyl-spiro(3,4-dihydrobenzopyran-2,4'-piperidine)] analogues as histamine-3 receptor antagonists” (Bioorg Med Chem Lett, 2012).

target: Cytochrome P450 2D6 (Homo sapiens, UniProt P10635); experiment: Inhibition of CYP2D6; type: ADME; settings: not given
Sequence (P10635 whole entry): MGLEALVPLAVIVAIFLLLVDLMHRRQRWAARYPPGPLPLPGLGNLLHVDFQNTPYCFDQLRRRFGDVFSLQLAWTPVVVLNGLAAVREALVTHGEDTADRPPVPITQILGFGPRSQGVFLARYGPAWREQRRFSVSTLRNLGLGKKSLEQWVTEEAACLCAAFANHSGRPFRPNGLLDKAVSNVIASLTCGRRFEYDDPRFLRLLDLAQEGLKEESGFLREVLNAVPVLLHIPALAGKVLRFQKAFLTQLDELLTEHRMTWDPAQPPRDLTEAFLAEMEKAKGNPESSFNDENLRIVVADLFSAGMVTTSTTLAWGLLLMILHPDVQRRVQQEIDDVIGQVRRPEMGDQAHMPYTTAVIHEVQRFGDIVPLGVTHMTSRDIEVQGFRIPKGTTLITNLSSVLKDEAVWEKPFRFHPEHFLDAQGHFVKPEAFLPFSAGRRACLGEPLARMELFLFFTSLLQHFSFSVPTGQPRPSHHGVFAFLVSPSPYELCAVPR

Row | IC50 [nM] | Structure (SMILES)
1 | 6600 | O=S1(=O)CCC(Oc2ccc3c(c2)CCC2(CCN(C4CCC4)CC2)O3)CC1

tested on: not listed separately; experiment: Cmax in rat at 5 mg/kg, po; type: ADME, organism-based; design: dose 5 mg/kg, route oral; settings: in vivo

Row | Cmax [ng/mL] | Structure (SMILES)
2 | 460 | O=S1(=O)CCC(Oc2ccc3c(c2)CCC2(CCN(C4CCC4)CC2)O3)CC1

tested on: not listed separately; experiment: Half life in monkey liver microsomes; type: ADME, Macaca mulatta, Microsome; settings: rhesus monkey

Row | half-life [min] | Structure (SMILES)
3 | > 40 | O=S1(=O)CCC(Oc2ccc3c(c2)CCC2(CCN(C4CCC4)CC2)O3)CC1

tested on: not listed separately; experiment: Clearance in rat at 1 mg/kg, iv; type: ADME, organism-based; design: dose 1 mg/kg, route intravenous; settings: in vivo

Row | clearance [mL/min/kg] | Structure (SMILES)
4 | 19 | O=S1(=O)CCC(Oc2ccc3c(c2)CCC2(CCN(C4CCC4)CC2)O3)CC1

tested on: not listed separately; experiment: Ratio drug uptake in brain to plasma of rat at 5 mg/kg, po measured after 6 hrs; type: ADME, organism-based; design: dose 5 mg/kg, route oral; settings: read-out: BPR

Row | Kp at 6 h | Structure (SMILES)
5 | 1 | O=S1(=O)CCC(Oc2ccc3c(c2)CCC2(CCN(C4CCC4)CC2)O3)CC1

target: T1, Alpha-1D adrenergic receptor (Homo sapiens) (UniProt P25100); experiment: Inhibition of adrenergic Alpha-1D receptor at 10 uM; settings: not given
T1 sequence (whole entry): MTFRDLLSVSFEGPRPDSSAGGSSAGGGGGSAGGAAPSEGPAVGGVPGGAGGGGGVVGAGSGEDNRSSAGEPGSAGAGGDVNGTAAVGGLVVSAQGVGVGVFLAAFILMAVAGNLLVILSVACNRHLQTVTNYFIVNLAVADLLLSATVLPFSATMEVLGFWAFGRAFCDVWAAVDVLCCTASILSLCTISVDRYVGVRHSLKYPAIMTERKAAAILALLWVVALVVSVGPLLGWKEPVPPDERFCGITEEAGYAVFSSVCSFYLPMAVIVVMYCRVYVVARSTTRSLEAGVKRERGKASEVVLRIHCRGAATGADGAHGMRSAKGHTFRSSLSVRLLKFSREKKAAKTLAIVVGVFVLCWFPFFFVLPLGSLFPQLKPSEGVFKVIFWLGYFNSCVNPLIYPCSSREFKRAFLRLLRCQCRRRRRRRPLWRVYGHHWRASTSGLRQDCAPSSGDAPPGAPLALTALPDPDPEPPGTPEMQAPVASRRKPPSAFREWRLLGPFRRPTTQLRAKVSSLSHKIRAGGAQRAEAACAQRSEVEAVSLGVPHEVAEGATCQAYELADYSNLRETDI

Row | inhibition [%] | Structure (SMILES)
6 | 50 | O=S1(=O)CCC(Oc2ccc3c(c2)CCC2(CCN(C4CCC4)CC2)O3)CC1

tested on: not listed separately; experiment: Half life in human liver microsomes; type: ADME, Microsome; settings: not given

Row | half-life [min] | Structure (SMILES)
7 | > 40 | O=S1(=O)CCC(Oc2ccc3c(c2)CCC2(CCN(C4CCC4)CC2)O3)CC1

target: Histamine H3 receptor (Homo sapiens, UniProt Q9Y5N1); experiment: Binding affinity to human histamine H3 receptor; settings: not given
Sequence (Q9Y5N1 whole entry): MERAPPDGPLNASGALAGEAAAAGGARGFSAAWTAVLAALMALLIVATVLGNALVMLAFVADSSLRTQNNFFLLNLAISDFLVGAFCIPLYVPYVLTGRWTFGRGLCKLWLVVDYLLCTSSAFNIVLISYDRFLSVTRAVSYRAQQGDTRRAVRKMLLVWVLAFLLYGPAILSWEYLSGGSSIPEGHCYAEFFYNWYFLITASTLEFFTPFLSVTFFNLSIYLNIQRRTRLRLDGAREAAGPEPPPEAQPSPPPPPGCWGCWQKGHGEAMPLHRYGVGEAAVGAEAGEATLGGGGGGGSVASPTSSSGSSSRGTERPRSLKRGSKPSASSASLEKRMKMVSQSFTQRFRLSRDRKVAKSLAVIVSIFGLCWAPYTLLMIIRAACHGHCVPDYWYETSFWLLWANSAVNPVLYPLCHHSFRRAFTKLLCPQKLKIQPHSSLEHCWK

Row | Ki [nM] | Structure (SMILES)
8 | 27 | c1cc2c(cc1O[C@@H]1CCOC1)CCC1(CCN(C3CCC3)CC1)O2
9 | 15 | c1cc2c(cc1OC1CCOCC1)CCC1(CCN(C3CCC3)CC1)O2
10 | 7 | O=S1(=O)CCC(Oc2ccc3c(c2)CCC2(CCN(C4CCC4)CC2)O3)CC1

tested on: not listed separately; experiment: AUC (0 to t) in rat at 5 mg/kg, po; type: ADME, organism-based; design: dose 5 mg/kg, route oral; settings: plasma

Row | AUC(0-t) [ng·h/mL] | Structure (SMILES)
11 | 1790 | O=S1(=O)CCC(Oc2ccc3c(c2)CCC2(CCN(C4CCC4)CC2)O3)CC1

tested on: not listed separately; experiment: Half life in mouse liver microsomes; type: ADME, Microsome; settings: not given

Row | half-life [min] | Structure (SMILES)
12 | > 40 | O=S1(=O)CCC(Oc2ccc3c(c2)CCC2(CCN(C4CCC4)CC2)O3)CC1

target: Histamine H1 receptor (Homo sapiens, UniProt P35367); experiment: Binding affinity to human histamine H1 receptor; settings: not given
Sequence (P35367 whole entry): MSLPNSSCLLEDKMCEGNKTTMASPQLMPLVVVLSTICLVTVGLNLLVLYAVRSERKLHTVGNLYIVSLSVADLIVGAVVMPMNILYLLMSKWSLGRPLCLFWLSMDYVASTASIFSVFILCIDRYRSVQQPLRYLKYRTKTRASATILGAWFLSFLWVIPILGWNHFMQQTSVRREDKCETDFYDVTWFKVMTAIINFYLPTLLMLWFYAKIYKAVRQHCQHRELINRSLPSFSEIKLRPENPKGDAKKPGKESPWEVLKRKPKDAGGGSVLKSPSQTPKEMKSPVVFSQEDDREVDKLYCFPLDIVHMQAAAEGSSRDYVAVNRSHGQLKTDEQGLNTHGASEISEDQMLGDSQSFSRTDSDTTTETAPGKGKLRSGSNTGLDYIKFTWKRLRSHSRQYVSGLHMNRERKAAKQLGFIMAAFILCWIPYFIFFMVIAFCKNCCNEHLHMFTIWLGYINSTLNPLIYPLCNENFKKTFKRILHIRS

Row | Ki [nM] | Structure (SMILES)
13 | > 10000 | O=S1(=O)CCC(Oc2ccc3c(c2)CCC2(CCN(C4CCC4)CC2)O3)CC1

tested on: Rattus norvegicus; experiment: Inhibition of RAMH-induced dipsogenia in rat at 3 mg/kg, po; type: functional; settings: not given

Row | Structure (SMILES) | inhibition in vivo at 3 mg/kg [%]
14 | O=S1(=O)CCC(Oc2ccc3c(c2)CCC2(CCN(C4CCC4)CC2)O3)CC1 | 61

tested on: not listed separately; experiment: Half life in rat liver microsomes; type: ADME, Microsome; settings: not given

Row | half-life [min] | Structure (SMILES)
15 | > 40 | O=S1(=O)CCC(Oc2ccc3c(c2)CCC2(CCN(C4CCC4)CC2)O3)CC1

tested on: not listed separately; experiment: Half life in rat at 1 mg/kg, iv; type: ADME, organism-based; design: dose 1 mg/kg, route intravenous; settings: in vivo

Row | half-life [min] | Structure (SMILES)
16 | 102 | O=S1(=O)CCC(Oc2ccc3c(c2)CCC2(CCN(C4CCC4)CC2)O3)CC1

tested on: not listed separately; experiment: Plasma protein binding in rat; type: ADME, cell-free; settings: read-out: PPB (converted)

Row | fraction unbound | Structure (SMILES)
17 | 0.27 | O=S1(=O)CCC(Oc2ccc3c(c2)CCC2(CCN(C4CCC4)CC2)O3)CC1

tested on: not listed separately; experiment: Oral bioavailability in rat at 5 mg/kg; type: ADME, organism-based; settings: in vivo

Row | bioavailability [%] | Structure (SMILES)
18 | 48 | O=S1(=O)CCC(Oc2ccc3c(c2)CCC2(CCN(C4CCC4)CC2)O3)CC1

target: Histamine H3 receptor (Rattus norvegicus, UniProt Q9QYN8); experiment: Binding affinity to rat histamine H3 receptor; settings: not given
Sequence (Q9QYN8 whole entry): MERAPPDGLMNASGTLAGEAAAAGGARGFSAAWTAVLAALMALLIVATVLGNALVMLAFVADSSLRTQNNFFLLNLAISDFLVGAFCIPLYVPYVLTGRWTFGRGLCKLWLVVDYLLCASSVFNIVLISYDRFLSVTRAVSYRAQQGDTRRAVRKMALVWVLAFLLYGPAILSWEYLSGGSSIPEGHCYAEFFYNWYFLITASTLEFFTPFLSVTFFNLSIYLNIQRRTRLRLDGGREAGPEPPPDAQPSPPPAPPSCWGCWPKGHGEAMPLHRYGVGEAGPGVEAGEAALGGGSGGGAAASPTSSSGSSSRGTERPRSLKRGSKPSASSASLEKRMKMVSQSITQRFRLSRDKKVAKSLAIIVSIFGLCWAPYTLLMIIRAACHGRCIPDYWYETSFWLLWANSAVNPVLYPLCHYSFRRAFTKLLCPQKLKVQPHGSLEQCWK

Row | Ki [nM] | Structure (SMILES)
19 | 119 | c1cc2c(cc1O[C@@H]1CCOC1)CCC1(CCN(C3CCC3)CC1)O2
20 | 42 | c1cc2c(cc1OC1CCOCC1)CCC1(CCN(C3CCC3)CC1)O2
21 | 24 | O=S1(=O)CCC(Oc2ccc3c(c2)CCC2(CCN(C4CCC4)CC2)O3)CC1

target: Histamine H2 receptor (Homo sapiens, UniProt P25021); experiment: Binding affinity to human histamine H2 receptor; settings: not given
Sequence (P25021 whole entry): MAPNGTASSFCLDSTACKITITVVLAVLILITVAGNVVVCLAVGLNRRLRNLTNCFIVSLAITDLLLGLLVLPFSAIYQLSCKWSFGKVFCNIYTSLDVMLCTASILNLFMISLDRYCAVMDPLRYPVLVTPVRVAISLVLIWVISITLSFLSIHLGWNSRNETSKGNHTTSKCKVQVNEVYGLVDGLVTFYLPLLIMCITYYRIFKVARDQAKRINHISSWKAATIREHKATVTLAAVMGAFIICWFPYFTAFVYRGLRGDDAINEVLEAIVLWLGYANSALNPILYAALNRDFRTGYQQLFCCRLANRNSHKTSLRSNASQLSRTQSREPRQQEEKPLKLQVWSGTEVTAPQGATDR

Row | Ki [nM] | Structure (SMILES)
22 | > 10000 | O=S1(=O)CCC(Oc2ccc3c(c2)CCC2(CCN(C4CCC4)CC2)O3)CC1

tested on: not listed separately; experiment: Inhibition of nACh receptor at 10 uM; settings: not given

Row | inhibition [%] | Structure (SMILES)
23 | 63 | O=S1(=O)CCC(Oc2ccc3c(c2)CCC2(CCN(C4CCC4)CC2)O3)CC1

tested on: not listed separately; experiment: Volume of distribution in rat at 1 mg/kg, iv; type: ADME, organism-based; design: dose 1 mg/kg, route intravenous; settings: in vivo

Row | Vd [L/kg] | Structure (SMILES)
24 | 2.8 | O=S1(=O)CCC(Oc2ccc3c(c2)CCC2(CCN(C4CCC4)CC2)O3)CC1

tested on: not listed separately; experiment: Plasma protein binding in human; type: ADME, cell-free; settings: read-out: PPB (converted)

Row | fraction unbound | Structure (SMILES)
25 | 0.23 | O=S1(=O)CCC(Oc2ccc3c(c2)CCC2(CCN(C4CCC4)CC2)O3)CC1

tested on: not listed separately; experiment: Fraction unbound in rat brain homogenate; type: ADME, tissue-based; settings: not given

Row | fraction unbound | Structure (SMILES)
26 | 0.27 | O=S1(=O)CCC(Oc2ccc3c(c2)CCC2(CCN(C4CCC4)CC2)O3)CC1

target: T2, Alpha-2C adrenergic receptor (Homo sapiens) (UniProt P18825); experiment: Inhibition of adrenergic Alpha-2C receptor at 10 uM; settings: not given
T2 sequence (whole entry): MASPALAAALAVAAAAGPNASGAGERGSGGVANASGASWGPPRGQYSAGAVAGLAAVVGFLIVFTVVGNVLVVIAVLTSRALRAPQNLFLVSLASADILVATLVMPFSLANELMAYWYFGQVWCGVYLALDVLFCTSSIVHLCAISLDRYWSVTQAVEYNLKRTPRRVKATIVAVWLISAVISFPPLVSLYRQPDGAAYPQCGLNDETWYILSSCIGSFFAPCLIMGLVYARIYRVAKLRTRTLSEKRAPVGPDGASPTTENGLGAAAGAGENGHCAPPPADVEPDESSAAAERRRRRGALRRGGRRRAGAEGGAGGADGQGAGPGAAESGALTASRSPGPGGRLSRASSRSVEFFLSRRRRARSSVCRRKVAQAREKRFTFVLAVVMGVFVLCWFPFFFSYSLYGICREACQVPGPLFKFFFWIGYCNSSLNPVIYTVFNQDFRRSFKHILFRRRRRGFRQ

Row | inhibition [%] | Structure (SMILES)
27 | 78 | O=S1(=O)CCC(Oc2ccc3c(c2)CCC2(CCN(C4CCC4)CC2)O3)CC1

target: Histamine H4 receptor (Homo sapiens, UniProt Q9H3N8); experiment: Binding affinity to human histamine H4 receptor; settings: not given

Row | Ki [nM] | Structure (SMILES)
28 | > 10000 | O=S1(=O)CCC(Oc2ccc3c(c2)CCC2(CCN(C4CCC4)CC2)O3)CC1
